The record followed here is ChEMBL document CHEMBL1641373, “Trishomocubane as a scaffold for the development of selective dopamine transporter (DAT) ligands” (Bioorg Med Chem Lett, 2011).

Assay [1] addresses Beta-2 adrenergic receptor (Homo sapiens) (UniProt P07550). Description: Inhibition of beta2 adrenergic receptor at 10 uM.
Assay [2] deals with 5-hydroxytryptamine receptor 6 (Homo sapiens, UniProt P50406). As to the kind of experiment: Inhibition of 5HT6 receptor at 10 uM.
In assay [3] the target is Muscarinic acetylcholine receptor M3 (Homo sapiens, UniProt P20309). Description: Inhibition of muscarinic M3 receptor at 10 uM.
In assay [4] the target is Sigma non-opioid intracellular receptor 1 (Rattus norvegicus, UniProt Q9R0C9). As to the kind of experiment: Displacement of (+)-[3H]pentazocine from sigma 1 receptor in rat PC12 cells. It counts as cell-based, PC-12.
For assay [5], the target named is T1, 5-hydroxytryptamine receptor 3A (Homo sapiens) (UniProt P46098).
T1 sequence (whole entry): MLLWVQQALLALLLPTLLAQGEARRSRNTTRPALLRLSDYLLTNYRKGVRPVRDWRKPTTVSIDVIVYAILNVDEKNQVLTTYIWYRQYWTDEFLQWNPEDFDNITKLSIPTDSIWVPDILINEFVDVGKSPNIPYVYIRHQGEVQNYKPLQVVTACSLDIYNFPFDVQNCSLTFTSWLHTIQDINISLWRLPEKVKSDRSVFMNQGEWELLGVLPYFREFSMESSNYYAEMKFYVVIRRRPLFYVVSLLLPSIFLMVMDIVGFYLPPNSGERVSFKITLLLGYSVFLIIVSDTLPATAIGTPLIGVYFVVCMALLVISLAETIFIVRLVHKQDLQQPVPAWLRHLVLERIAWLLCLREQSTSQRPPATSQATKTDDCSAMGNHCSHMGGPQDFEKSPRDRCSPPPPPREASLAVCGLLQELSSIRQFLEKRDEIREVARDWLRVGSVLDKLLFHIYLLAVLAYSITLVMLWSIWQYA
Description: Inhibition of 5HT3 receptor at 10 uM.

Assay [6] is described as follows: Displacement of [3H]-ditolyl guanidine from sigma 2 receptor in rat PC12 cells. Type of assay: cell-based. Conditions: pc-12. Background: Loss of bound radioactivity is the signal in a displacement assay; it reports binding, not function.
For a further assay, the target named is D(3) dopamine receptor (Homo sapiens, UniProt P35462). Description: Inhibition of dopamine D3 receptor.
For a further assay, the target named is Histamine H2 receptor (Homo sapiens, UniProt P25021). As to the kind of experiment: Inhibition of H2 receptor.
Assay [7] has as its target T2, Alpha-1A adrenergic receptor (Homo sapiens) (UniProt P35348).
T2 sequence (whole entry): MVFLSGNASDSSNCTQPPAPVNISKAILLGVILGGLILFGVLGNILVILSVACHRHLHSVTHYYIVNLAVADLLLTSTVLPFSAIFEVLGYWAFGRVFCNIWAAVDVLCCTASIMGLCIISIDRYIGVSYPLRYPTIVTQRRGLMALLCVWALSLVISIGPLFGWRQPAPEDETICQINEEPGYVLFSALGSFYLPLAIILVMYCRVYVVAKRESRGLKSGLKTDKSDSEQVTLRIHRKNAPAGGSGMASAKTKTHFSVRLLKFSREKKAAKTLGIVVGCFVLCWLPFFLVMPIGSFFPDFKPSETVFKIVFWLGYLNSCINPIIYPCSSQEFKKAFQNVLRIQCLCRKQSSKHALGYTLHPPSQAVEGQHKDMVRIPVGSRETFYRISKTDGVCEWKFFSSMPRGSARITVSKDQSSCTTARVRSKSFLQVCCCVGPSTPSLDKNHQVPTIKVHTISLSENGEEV
Description: Inhibition of alpha1A adrenergic receptor at 10 uM.

Assay [8] concerns the target Sodium-dependent noradrenaline transporter (Homo sapiens, UniProt P23975). Description: Displacement of [3H]nisoxetine from human NET expressed in HEK cells. Type of assay: cell-based, HEK293. As to conditions: for inhibition: HEK293, concentration not given here.
Assay [9] addresses 5-hydroxytryptamine receptor 1E (Homo sapiens) (UniProt P28566). Description: Inhibition of 5HT1E receptor at 10 uM.
The target in assay [10] is Beta-1 adrenergic receptor (Homo sapiens) (UniProt P08588). Description: Inhibition of beta1 adrenergic receptor at 10 uM.
In assay [11] the target is Histamine H4 receptor (Homo sapiens) (UniProt Q9H3N8). As to the kind of experiment: Inhibition of H4 receptor at 10 uM.
Assay [12] deals with T3, Muscarinic acetylcholine receptor M4 (Homo sapiens) (UniProt P08173).
T3 sequence (whole entry): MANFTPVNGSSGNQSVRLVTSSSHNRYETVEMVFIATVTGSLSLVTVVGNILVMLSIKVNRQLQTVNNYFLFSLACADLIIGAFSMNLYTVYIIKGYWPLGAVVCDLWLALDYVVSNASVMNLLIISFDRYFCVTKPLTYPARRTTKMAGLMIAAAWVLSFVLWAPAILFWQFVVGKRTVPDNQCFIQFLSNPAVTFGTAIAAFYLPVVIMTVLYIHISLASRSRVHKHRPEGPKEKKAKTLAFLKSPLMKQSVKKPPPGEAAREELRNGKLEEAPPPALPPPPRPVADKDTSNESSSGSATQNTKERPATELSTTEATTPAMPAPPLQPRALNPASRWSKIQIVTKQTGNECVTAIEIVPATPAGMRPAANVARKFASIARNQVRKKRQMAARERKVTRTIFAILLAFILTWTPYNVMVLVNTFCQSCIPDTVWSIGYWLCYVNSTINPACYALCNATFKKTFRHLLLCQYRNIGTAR
Description: Inhibition of muscarinic M4 receptor at 10 uM.

For assay [13], the target named is T4, Alpha-1B adrenergic receptor (Homo sapiens) (UniProt P35368).
T4 sequence (whole entry): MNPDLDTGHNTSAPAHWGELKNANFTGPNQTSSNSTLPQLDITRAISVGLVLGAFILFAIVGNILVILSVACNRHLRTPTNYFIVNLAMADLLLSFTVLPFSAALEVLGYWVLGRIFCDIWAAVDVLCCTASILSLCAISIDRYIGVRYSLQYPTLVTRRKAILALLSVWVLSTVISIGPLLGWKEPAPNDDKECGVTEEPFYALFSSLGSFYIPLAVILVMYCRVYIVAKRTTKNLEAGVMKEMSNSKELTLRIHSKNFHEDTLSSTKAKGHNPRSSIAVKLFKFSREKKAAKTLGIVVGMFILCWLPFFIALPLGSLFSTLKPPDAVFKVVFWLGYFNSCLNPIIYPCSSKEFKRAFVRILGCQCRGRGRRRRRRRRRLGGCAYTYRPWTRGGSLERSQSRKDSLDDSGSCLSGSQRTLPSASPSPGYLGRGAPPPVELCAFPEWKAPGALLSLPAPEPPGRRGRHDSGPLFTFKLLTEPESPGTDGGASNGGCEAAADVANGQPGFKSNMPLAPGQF
Description: Inhibition of Alpha-1B adrenergic receptor at 10 uM.

In assay [14] the target is 5-hydroxytryptamine receptor 5A (Homo sapiens) (UniProt P47898). Description: Inhibition of 5HT5A receptor at 10 uM.

Each structure is given as a SMILES string. Bounds are passed on as bounds.

The term inhibition denotes the percentage by which the read-out fell short of the control. Low readings indicate little suppression, high ones strong suppression. A word on the Ki: it is a dissociation constant, usually derived from enzyme kinetics or from competition with a known ligand.

Histamine H2 receptor, sequence (P25021 whole entry): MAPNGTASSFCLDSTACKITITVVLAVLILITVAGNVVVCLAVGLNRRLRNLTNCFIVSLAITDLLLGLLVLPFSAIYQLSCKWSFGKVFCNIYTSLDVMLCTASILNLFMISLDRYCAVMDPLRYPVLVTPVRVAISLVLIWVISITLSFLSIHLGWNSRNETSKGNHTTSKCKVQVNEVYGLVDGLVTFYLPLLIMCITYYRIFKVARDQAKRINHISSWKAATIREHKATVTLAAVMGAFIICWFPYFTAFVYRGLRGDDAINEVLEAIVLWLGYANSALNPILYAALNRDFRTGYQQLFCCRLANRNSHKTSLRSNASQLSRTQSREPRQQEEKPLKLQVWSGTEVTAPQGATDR
Sigma non-opioid intracellular receptor 1, sequence (Q9R0C9 whole entry): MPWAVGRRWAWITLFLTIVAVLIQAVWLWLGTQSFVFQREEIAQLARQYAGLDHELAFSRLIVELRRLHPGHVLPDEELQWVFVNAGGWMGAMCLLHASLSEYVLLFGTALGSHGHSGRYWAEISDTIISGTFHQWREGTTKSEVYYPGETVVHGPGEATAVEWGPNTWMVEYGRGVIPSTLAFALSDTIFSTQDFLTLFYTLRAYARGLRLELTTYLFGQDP
Beta-2 adrenergic receptor (Homo sapiens), sequence (P07550 whole entry, looked up): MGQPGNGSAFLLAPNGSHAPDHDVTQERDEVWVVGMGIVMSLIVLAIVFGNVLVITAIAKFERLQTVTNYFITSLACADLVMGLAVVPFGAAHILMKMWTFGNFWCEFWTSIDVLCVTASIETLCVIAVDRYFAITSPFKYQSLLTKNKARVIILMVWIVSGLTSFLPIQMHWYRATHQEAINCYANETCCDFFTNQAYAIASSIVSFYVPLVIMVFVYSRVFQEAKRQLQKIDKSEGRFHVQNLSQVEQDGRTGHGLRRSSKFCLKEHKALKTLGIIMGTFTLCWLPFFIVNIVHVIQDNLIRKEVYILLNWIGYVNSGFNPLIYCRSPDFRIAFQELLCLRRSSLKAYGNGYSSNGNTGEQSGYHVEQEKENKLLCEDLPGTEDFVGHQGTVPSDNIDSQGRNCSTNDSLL
Beta-1 adrenergic receptor (Homo sapiens), sequence (P08588 whole entry, looked up): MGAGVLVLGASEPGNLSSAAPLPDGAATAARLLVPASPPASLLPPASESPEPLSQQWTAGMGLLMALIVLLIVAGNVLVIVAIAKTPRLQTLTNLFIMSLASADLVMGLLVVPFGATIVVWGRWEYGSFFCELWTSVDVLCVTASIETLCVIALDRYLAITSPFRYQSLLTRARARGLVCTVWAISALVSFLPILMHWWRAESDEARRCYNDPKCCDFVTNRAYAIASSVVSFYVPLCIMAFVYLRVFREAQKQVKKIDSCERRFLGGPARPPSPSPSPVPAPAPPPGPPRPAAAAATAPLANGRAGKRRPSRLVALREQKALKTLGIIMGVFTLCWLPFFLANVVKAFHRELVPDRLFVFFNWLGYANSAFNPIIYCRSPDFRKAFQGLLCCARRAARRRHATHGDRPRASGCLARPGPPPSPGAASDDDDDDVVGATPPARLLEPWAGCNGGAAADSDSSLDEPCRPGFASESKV
5-hydroxytryptamine receptor 1E (Homo sapiens), sequence (P28566 whole entry): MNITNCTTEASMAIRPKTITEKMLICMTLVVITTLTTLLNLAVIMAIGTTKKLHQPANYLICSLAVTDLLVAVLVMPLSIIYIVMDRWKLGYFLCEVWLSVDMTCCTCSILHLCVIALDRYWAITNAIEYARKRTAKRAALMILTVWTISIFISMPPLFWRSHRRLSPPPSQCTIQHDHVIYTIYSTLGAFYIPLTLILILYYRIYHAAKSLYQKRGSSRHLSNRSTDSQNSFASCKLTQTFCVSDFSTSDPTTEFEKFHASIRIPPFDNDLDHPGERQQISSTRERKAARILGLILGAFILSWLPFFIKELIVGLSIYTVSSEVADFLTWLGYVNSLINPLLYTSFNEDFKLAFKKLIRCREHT
5-hydroxytryptamine receptor 6, sequence (P50406 whole entry): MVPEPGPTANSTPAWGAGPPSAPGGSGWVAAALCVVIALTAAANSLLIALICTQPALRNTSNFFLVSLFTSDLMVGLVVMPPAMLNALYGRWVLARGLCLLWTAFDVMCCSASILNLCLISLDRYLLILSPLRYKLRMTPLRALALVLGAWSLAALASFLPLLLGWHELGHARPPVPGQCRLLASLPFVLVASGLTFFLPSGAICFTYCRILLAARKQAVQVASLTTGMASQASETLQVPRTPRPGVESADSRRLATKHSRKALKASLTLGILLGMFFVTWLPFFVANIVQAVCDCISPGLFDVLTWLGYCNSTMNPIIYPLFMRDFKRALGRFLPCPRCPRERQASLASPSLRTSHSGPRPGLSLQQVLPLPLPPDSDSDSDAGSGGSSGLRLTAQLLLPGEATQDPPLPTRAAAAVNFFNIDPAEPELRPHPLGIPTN
5-hydroxytryptamine receptor 5A (Homo sapiens), sequence (P47898 whole entry): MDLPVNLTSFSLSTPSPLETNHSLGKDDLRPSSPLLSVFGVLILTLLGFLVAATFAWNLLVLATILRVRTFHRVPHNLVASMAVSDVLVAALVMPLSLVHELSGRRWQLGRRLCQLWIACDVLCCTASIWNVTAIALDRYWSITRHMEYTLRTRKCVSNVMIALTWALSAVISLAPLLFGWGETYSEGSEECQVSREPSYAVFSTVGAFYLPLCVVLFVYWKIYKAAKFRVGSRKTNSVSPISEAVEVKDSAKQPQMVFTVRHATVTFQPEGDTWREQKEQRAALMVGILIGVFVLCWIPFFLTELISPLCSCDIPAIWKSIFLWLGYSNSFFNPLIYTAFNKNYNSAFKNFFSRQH
D(3) dopamine receptor, sequence (P35462 whole entry): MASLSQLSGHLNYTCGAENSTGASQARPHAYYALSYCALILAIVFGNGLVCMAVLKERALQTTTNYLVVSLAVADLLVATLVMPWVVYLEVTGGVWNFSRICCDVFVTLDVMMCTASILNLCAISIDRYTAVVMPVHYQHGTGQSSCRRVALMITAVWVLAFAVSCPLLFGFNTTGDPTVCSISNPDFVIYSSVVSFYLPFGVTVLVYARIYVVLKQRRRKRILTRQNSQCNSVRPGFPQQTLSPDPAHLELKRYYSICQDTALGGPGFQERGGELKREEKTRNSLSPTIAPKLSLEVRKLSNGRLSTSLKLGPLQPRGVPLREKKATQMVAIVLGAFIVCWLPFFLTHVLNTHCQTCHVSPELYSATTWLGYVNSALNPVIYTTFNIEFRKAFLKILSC
Histamine H4 receptor (Homo sapiens), sequence (Q9H3N8 whole entry): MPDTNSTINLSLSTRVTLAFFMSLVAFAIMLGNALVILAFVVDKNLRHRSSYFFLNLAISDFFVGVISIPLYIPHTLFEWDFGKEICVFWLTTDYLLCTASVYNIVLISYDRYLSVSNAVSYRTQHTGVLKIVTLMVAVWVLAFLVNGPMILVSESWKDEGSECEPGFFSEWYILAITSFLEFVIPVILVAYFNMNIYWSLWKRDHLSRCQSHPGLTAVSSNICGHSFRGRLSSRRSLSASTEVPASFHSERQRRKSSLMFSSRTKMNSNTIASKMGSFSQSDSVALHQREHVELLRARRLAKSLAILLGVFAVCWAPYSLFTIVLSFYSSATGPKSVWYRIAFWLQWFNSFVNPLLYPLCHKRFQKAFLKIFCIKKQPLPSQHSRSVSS
Muscarinic acetylcholine receptor M3, sequence (P20309 whole entry, looked up): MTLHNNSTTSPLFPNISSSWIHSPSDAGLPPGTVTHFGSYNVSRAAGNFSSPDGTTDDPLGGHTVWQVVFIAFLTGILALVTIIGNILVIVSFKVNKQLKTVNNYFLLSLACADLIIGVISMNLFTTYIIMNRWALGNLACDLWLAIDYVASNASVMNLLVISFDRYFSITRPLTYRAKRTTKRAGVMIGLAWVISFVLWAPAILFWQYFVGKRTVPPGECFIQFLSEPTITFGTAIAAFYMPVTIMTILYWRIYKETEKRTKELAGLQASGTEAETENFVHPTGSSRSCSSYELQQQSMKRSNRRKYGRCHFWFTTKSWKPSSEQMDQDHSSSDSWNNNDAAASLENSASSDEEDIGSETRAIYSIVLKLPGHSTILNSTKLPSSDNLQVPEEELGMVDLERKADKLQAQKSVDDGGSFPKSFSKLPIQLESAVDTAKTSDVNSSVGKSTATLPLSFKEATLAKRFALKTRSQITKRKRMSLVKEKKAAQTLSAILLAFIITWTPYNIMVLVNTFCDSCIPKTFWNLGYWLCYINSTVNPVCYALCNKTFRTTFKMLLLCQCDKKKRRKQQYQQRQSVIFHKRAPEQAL
Sodium-dependent noradrenaline transporter, sequence (P23975 whole entry): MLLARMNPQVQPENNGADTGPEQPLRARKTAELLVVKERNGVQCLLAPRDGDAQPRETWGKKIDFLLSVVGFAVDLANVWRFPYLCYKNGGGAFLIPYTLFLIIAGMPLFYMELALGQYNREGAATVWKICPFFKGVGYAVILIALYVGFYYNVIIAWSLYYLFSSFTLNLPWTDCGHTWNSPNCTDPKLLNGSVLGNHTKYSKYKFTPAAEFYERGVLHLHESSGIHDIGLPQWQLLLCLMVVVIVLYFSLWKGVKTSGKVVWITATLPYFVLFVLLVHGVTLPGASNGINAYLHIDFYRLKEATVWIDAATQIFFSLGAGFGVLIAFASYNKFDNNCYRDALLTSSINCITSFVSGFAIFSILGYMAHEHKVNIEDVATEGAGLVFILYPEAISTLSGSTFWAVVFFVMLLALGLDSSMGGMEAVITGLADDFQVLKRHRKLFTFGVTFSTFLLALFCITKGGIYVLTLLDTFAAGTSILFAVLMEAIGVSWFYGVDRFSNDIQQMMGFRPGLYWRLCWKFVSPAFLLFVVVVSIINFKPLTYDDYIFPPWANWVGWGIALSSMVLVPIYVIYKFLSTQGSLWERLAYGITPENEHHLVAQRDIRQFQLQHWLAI

As for `Fc1cccc(CN[C@H]2C3C4CC5C6C4CC3C6C52)c1` (some centres undefined), the inhibition in assay [1], in [2], in assay [3], in [5], in assay [7] and in assay [9] was below 50% throughout. For the same compound, the inhibition in assay [10], in [11], in assay [12], in assay [13] and in assay [14] was below 50% in each case. Also, the Ki in [4] came out at 198 nM; in [6] it was 19 nM; at D(3) dopamine receptor it was 7160 nM; on Histamine H2 receptor, 2150 nM; in [8], 5880 nM.
Consider `CN(Cc1cccc(F)c1)[C@H]1C2C3CC4C5C3CC2C5C41` (some centres undefined), for which the inhibition in assay [1], in [2], in assay [3], in [5], in assay [7] and in [8] was below 50% in each case. The inhibition in assay [9], in assay [10], in [11], in [12], in assay [13] and in assay [14] was below 50% throughout. The Ki in assay [4] amounted to 1570 nM; in assay [6], 117 nM.
For the compound `Fc1cccc(CCN[C@H]2C3C4CC5C6C4CC3C6C52)c1` (some centres undefined), the inhibition in [1], in assay [5], in assay [7], in assay [9], in assay [10] and in assay [11] was below 50% throughout. The inhibition in [13] and in [14] was below 50% throughout. Moreover, the inhibition constant (Ki) is 19 nM in [4]; 6 nM in assay [6]; 5220 nM on D(3) dopamine receptor; 4420 nM on Histamine H2 receptor; 3620 nM in assay [8].
For `CN(CCc1cccc(F)c1)[C@H]1C2C3CC4C5C3CC2C5C41` (some centres undefined), the inhibition in [1], in [2], in [3], in [5], in assay [7] and in assay [8] was below 50% in each case. Besides, the inhibition in assay [9], in assay [10], in [11], in assay [12], in [13] and in assay [14] was below 50% each time. In addition, the Ki in assay [4] was 1160 nM; in [6], 39 nM; on D(3) dopamine receptor, above 10000 nM; on Histamine H2 receptor, 4450 nM.
